# From ChEMBL document CHEMBL1201862, “PubChem BioAssay data set” (2004)
#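 Dose response: 5 concentrations. Exposure: 48 h. Format: 96-well plates. Endpoint: linear interpolation; highest concentration if not reached. Abbreviation: GI50, concentration required for 50% inhibition of growth.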 Active and inactive are the calls of the source. No stated cut-off is given here; in the data, active = GI50 up to about 1.1 µM and inactive = higher.
# Tests used:
# Assay in all cases: growth of human tumour cells (NCI), 48 h
# [1] = tested on: SNB-75
# [2] = tested on: M14
# [3] = tested on: 786-0
# [4] = tested on: UO-31
# [5] = tested on: NCI-H23
# [6] = tested on: T47D
# [7] = tested on: MDA-MB-435
# [8] = tested on: OVCAR-4
# [9] = tested on: HT-29
# [10] = tested on: SK-OV-3
# [11] = tested on: CAKI-1
# [12] = tested on: K562
# [13] = tested on: A498
# [14] = tested on: SK-MEL-2
# [15] = tested on: TK-10
# [16] = tested on: SK-MEL-28
# [17] = tested on: PC-3
# [18] = tested on: UACC-62
# [19] = tested on: COLO 205
# [20] = tested on: MOLT-4
# [21] = tested on: NCI-H226
# [22] = tested on: RXF 393
# [23] = tested on: SNB-19
# [24] = tested on: NCI-H522
# [25] = tested on: HCT-15
# [26] = tested on: HCT-116
# [27] = tested on: U-251
# [28] = tested on: MCF7
# [29] = tested on: SN12C
# [30] = tested on: NCI-H460
# [31] = tested on: CCRF-CEM
# [32] = tested on: SW-620
# [33] = tested on: SF-539
# [34] = tested on: OVCAR-3
# [35] = tested on: KM12
# [36] = tested on: EKVX
# [37] = tested on: HOP-62
# [38] = tested on: BT-549
# [39] = tested on: SK-MEL-5
# [40] = tested on: NCI/ADR-RES
# [41] = tested on: UACC-257
# [42] = tested on: MDA-N
# [43] = tested on: OVCAR-5
# [44] = tested on: DU-145
# [45] = tested on: LOX IMVI
# [46] = tested on: A549
# [47] = tested on: RPMI-8226
# [48] = tested on: IGROV-1
# [49] = tested on: MDA-MB-231
# [50] = tested on: OVCAR-8
# [51] = tested on: SF-268
# [52] = tested on: SR
# [53] = tested on: HCC 2998
# [54] = tested on: SF-295
# [55] = tested on: Malme-3M
# [56] = tested on: ACHN
# [57] = tested on: HOP-92
# [58] = tested on: HL-60
# [59] = tested on: Hs-578T
structure (smiles),measurement,setting,value
Cc1cccc(NC(Nc2cccc(C)c2)=C(C(Cl)=C(Cl)Cl)[N+](=O)[O-])c1,GI50,[1],25.2 µM (inactive)
same,GI50,[2],16.1 µM (inactive)
same,GI50,[3],14.7 µM (inactive)
same,GI50,[4],11.8 µM (inactive)
same,GI50,[5],9.12 µM (inactive)
same,GI50,[6],11.9 µM (inactive)
same,GI50,[7],8.87 µM (inactive)
same,GI50,[8],22.8 µM (inactive)
same,GI50,[9],15.3 µM (inactive)
same,GI50,[10],22.3 µM (inactive)
same,GI50,[11],14.7 µM (inactive)
same,GI50,[12],50.8 µM (inactive)
same,GI50,[13],36.7 µM (inactive)
same,GI50,[14],16.4 µM (inactive)
same,GI50,[15],12.4 µM (inactive)
same,GI50,[16],17.3 µM (inactive)
same,GI50,[17],19.9 µM (inactive)
same,GI50,[18],13.4 µM (inactive)
same,GI50,[19],12.6 µM (inactive)
same,GI50,[20],2.17 µM (inactive)
same,GI50,[21],3.35 µM (inactive)
same,GI50,[22],3.94 µM (inactive)
same,GI50,[23],25.8 µM (inactive)
same,GI50,[24],6.52 µM (inactive)
same,GI50,[25],13.1 µM
same,GI50,[26],5.31 µM (inactive)
same,GI50,[27],12.6 µM (inactive)
same,GI50,[28],22.3 µM (inactive)
same,GI50,[29],7.59 µM (inactive)
same,GI50,[30],14.2 µM (inactive)
same,GI50,[31],63.5 µM (inactive)
same,GI50,[32],14.8 µM (inactive)
same,GI50,[33],10.1 µM (inactive)
same,GI50,[34],9.31 µM (inactive)
same,GI50,[35],19.5 µM (inactive)
same,GI50,[36],18.1 µM (inactive)
same,GI50,[37],16.7 µM (inactive)
same,GI50,[38],11.6 µM (inactive)
same,GI50,[39],5.98 µM (inactive)
same,GI50,[40],14 µM (inactive)
same,GI50,[41],19.3 µM (inactive)
same,GI50,[42],7.45 µM (inactive)
same,GI50,[43],19.6 µM (inactive)
same,GI50,[44],18.7 µM (inactive)
same,GI50,[45],8.99 µM (inactive)
same,GI50,[46],22 µM (inactive)
same,GI50,[47],8.11 µM (inactive)
same,GI50,[48],2.28 µM (inactive)
same,GI50,[49],3.38 µM (inactive)
same,GI50,[50],12.3 µM (inactive)
same,GI50,[51],13.6 µM (inactive)
same,GI50,[52],3.81 µM (inactive)
same,GI50,[53],22.8 µM (inactive)
same,GI50,[54],14 µM (inactive)
same,GI50,[55],14.4 µM (inactive)
same,GI50,[56],15.7 µM (inactive)
CCOC(=O)C1=C(C)N(Cc2ccc(Cl)cc2Cl)C2(O)C=CC(=O)C3C(=O)N(c4ccccc4)C(=O)C132 (configuration not stated),GI50,[2],3.27 µM (inactive)
same,GI50,[3],3.24 µM (inactive)
same,GI50,[4],2.07 µM (inactive)
same,GI50,[5],1.63 µM (inactive)
same,GI50,[6],1.55 µM (inactive)
same,GI50,[7],1.81 µM (inactive)
same,GI50,[8],1.51 µM (inactive)
same,GI50,[9],1.69 µM (inactive)
same,GI50,[11],3.02 µM (inactive)
same,GI50,[12],0.659 µM (active)
same,GI50,[13],4.57 µM (inactive)
same,GI50,[14],1.77 µM (inactive)
same,GI50,[15],2.72 µM (inactive)
same,GI50,[16],1.59 µM (inactive)
same,GI50,[57],1.78 µM (inactive)
same,GI50,[17],1.5 µM (inactive)
same,GI50,[18],1.63 µM (inactive)
same,GI50,[19],1.7 µM (inactive)
same,GI50,[20],1.41 µM (inactive)
same,GI50,[21],1.54 µM (inactive)
same,GI50,[22],1.32 µM (inactive)
same,GI50,[23],1.88 µM (inactive)
same,GI50,[24],1.72 µM (inactive)
same,GI50,[25],1.52 µM
same,GI50,[26],3.11 µM (inactive)
same,GI50,[27],1.67 µM (inactive)
same,GI50,[28],0.857 µM (active)
same,GI50,[29],1.91 µM (inactive)
same,GI50,[30],2.1 µM (inactive)
same,GI50,[31],0.222 µM (active)
same,GI50,[32],1.32 µM (inactive)
same,GI50,[33],2.23 µM (inactive)
same,GI50,[34],1.37 µM (inactive)
same,GI50,[35],1.71 µM (inactive)
same,GI50,[36],1.89 µM (inactive)
same,GI50,[37],2.87 µM (inactive)
same,GI50,[38],1.3 µM (inactive)
same,GI50,[39],2.09 µM (inactive)
same,GI50,[40],2.29 µM (inactive)
same,GI50,[41],2.2 µM (inactive)
same,GI50,[43],3.17 µM (inactive)
same,GI50,[44],1.36 µM (inactive)
same,GI50,[45],0.682 µM (active)
same,GI50,[58],1.46 µM (inactive)
same,GI50,[46],2.11 µM (inactive)
same,GI50,[47],0.308 µM (active)
same,GI50,[48],1.78 µM (inactive)
same,GI50,[49],2.1 µM (inactive)
same,GI50,[50],2.02 µM (inactive)
same,GI50,[51],2.38 µM (inactive)
same,GI50,[52],0.51 µM (active)
same,GI50,[53],1.71 µM (inactive)
same,GI50,[54],2.88 µM (inactive)
same,GI50,[59],3.37 µM (inactive)
same,GI50,[55],2.09 µM (inactive)
same,GI50,[56],1.71 µM (inactive)
